Molecules are shown by their SMILES.

Data set [1] has as its system NCI-H23 cells (containing KRAS G12C mutation). The data set is described as follows: Inhibition of NCI-H23 cell proliferation (CellTiter-Glo). As to conditions: Homo sapiens, 120 hours culture. The format is cell-based. Here is the method:
The following method was used to determine the effects of the compounds of the present invention on NCI-H23 cell proliferation. NCI-H23 cells (containing KRAS G12C mutation) were purchased from Cell Resource Center of Shanghai Institutes for Biological Sciences, Chinese Academy of Sciences, and cultured in RPMI 1640 mediums containing 10% fetal bovine serum, 100 U penicillin, 100 μg/mL streptomycin and 1 mM Sodium Pyruvate. The activities of the cells were determined by CellTiter-Glo® Luminescent Cell Viability Assay kit (Promega, article number: G7573).
(§1) The experimental method was operated according to the steps in the kit instruction, and was briefly described as follows: test compounds were first dissolved in DMSO to prepare storage solutions of 10 mM, and then diluted in mediums, prepared as test samples. The final concentrations of the test compounds were 10,000 nM to 1.52 nM. The cells in logarithmic phase were inoculated in a 96-well cell culture plate with 1,000 cells per well, after cultured overnight in 5% CO2 incubator at 37° C., the test compounds were added to the incubator to continue the culture for 120 hours. After the culture, 50 μL of CellTiter-Glo detection solution was added to each well, shaken for 5 minutes, and then stood for 10 minutes. Then, a Luminescence mode was used to read the luminescence values of each well of the samples on a microplate reader. Compared with the numerical value of a control group (0.3% DMSO), the percentage inhibition rates of the compounds at each concentration were calculated, and the IC50 values of the compounds inhibiting cell proliferation were obtained by performing nonlinear regression analysis with logarithmic values of the compound concentration—inhibition rate by GraphPad Prism 5 software, which was shown in Table 2.

For data set [2], the target named is recombinant human full-length SHP2 (Homo sapiens (Human), UniProt Q06124). The data set is described as follows: Allosteric inhibition of full-length SHP2 enzyme (DiFMUP fluorescence). The format is biochemical. As to conditions: full-length SHP2 0.5 nM, activating peptide 0.5 uM, DiFMUP substrate. From the text:
The following method was used to determine the inhibition degrees of the compounds of the present invention on the activity of recombinant human full-length SHP2 in vitro. SHP2 was allosterically activated by the binding of di-tyrosyl-phosphorylated peptide to a Src homologous 2(SH2) domain of SHP2. An activation step of the latter leads to the self-inhibitory interface release of SHP2, and then activates SHP2 protein tyrosine phosphatase (PTP), which might be used for substrate recognition and reaction catalysis.
The experimental process was briefly described as follows: Test compounds were first dissolved in DMSO to prepare storage solutions. […] Then, the compounds to be tested were added in a concentration range of 0.00004-10 uM and incubated at 25° C. for 60 minutes. Then DiFMUP (Thermo, D6567) was added in the reaction and incubated at 25° C. for 30 minutes. After incubation, readings were taken using a microplate reader (BMG) with excitation and emission wavelengths of 340 nm and 450 nm, respectively.

Data set [3] concerns NCI-H358 cells (containing KRAS G12C mutation). The data set is described as follows: Inhibition of NCI-H358 cell proliferation (CellTiter-Glo). As to conditions: Homo sapiens, NCI-H358, 120 h, read-out: IC50(nM)/NCI-H358. The format is cell-based. As for the experimental part: The following method was used to determine the effects of the compounds of the present invention on NCI-H358 cell proliferation. NCI-H358 cells (containing KRAS G12C mutation) were purchased from Cell Resource Center of Shanghai Institutes for Biological Sciences, Chinese Academy of Sciences, and cultured in RPMI 1640 mediums containing 10% fetal bovine serum, 100 U penicillin, 100 μg/mL streptomycin and 1 mM Sodium Pyruvate. The activities of the cells were determined by CellTiter-Glo® Luminescent Cell Viability Assay kit (Promega, article number: G7573).
as §1, with “of the” for “of a”, “Table 3.” for “Table 2.”

Data set [4] in a line: Pharmacokinetic test in ICR mice, intragastric (Test Example 4). The format is in vivo. Conditions: PO; for AUC(0-inf) / Cmax: mouse, 10 mg/kg per table (method text says 1 mg/kg), plasma; for AUC(0-inf): read-out: Area under curve AUC0-∞; for Cmax: read-out: Blood concentration Cmax. The text has this:
ICR mice were used as test animals, and LC/MS/MS methods was used to determine the drug concentrations at different moments in plasma of mice administered by intragastric injection with the compound 5 and the compound 6 of the present invention, and to study the pharmacokinetic characteristics of the compounds of the present invention in mice. An appropriate amount of drug was weighed, added with an appropriate amount of sodium carboxymethylcellulose (CMC-Na, containing 0.5% Tween 80), vortexed, and ultrasonically prepared into 1 mg/kg suspension. The ICR mice in the intragastric group of each compound to be tested (9 mice in each group) were fasted overnight and then administered by intragastric injection (PO, […], and administration volume of 10 mL/kg), and ate 4 hours after administration. About 0.2 mL of blood was collected via jugular vein before administration and 0.083 hour, 0.25 hour, 0.5 hour, 1 hour, 2 hours, 4 hours, 8 hours and 24 hours after administration, and heparin sodium was used for anticoagulation. The collected blood samples were placed on ice, and plasma was separated by centrifugation (centrifugation condition: 1,500 g, 10 minutes). The collected plasma samples were stored at −40° C. to −20° C. before analysis. LC-MS/MS was used to determine the contents of the compounds to be tested in mouse plasma after intragastric administration.

For data set [5], the system named is NCI-H358 subcutaneous transplanted tumors. The data set is described as follows: Growth inhibition of subcutaneous transplanted NCI-H358 tumors in BALB/c nude mice. The format is in vivo. As for the experimental part: To evaluate antitumor effects and safety of the compounds of Example 27 in an animal model of BALB/c nude mice with subcutaneous transplanted NCI-H358 cell lines
An approximate amount of the compound of Example 27 was weighed, added with an approximate amount of DMA (dimethylacetamide) to fully dissolve the compound, then added with Solutol HS 15 and Saline (DMA: Solutol HS 15: Saline=5:10:85 (v/v/v)) in turn, and mixed evenly by vortex, and the configuration concentration was 3 mg/mL.
BALB/c nude mice, female, 6-7 weeks old (the age of mice when tumor cells were inoculated), 12 mice, purchased from Jiangsu GemPharmatech.
NCI-H358 cells were cultured in RPMI 1640 mediums containing 10% fetal bovine serum, 1% sodium pyruvate and 1% glutamine. NCI-H358 cells in exponential growth period were collected, and resuspend in PBS to a suitable concentration for subcutaneous tumor inoculation in nude mice.
12 female BALB/c nude mice were subcutaneously inoculated with about 3×10^6 NCI-H358 cells on the right sides of their backs. When the average volume of tumors reaches about 100 mm^3 to 200 mm^3, the mice were randomly divided according to tumor sizes with 6 mice in each group. The animals in each group were given the subjects once a day (qd) according to the animal body weights at a fixed time every day according to the table below, administered orally (po) for 10 consecutive days, and the daily body weights were recorded.
After tumor inoculation, routine monitoring included the effects of tumor growth and treatment on the normal behaviors of the animals, specifically the mobility, feeding and drinking, weight gain or loss, eyes, coat and other abnormalities of the experimental animals.
(1) TV (tumor volume)=½×a×b^2, wherein a and b represent the length and the width of the tumor respectively;
(2) RTV (relative tumor volume)=Vt/V0, wherein V0 is the tumor volume measured at the time of grouping administration (i.e., d0), and Vt is the tumor volume at each measurement;
(3) Relative tumor proliferation rate T/C (%)=TRTV/CRTV×100%, wherein TRTV is the RTV of the treatment group and CRTV is the RTV of the control group;

A short description of data set [6]: Pharmacokinetic test of mice, intragastric (Test Example 5). The format is in vivo. As to conditions: ICR mice, PO, 5 mg/kg. The text has this:
ICR mice were used as test animals, and LC/MS/MS methods was used to determine the drug concentrations at different moments in plasma of mice administered by intragastric injectiion with the compound 27 of the present invention, and to study the pharmacokinetic characteristics of the compound of the present invention in mice. An appropriate amount of drug compound 27 was weighed, added with an appropriate amount of sodium carboxymethylcellulose (CMC-Na, containing 0.5% Tween 80), vortexed, and ultrasonically prepared into 0.5 mg/kg suspension. The ICR mice in the intragastric group of each compound to be tested (9 mice in each group) were fasted overnight and then administered by intragastric injection (PO, administration dose of the compound 27 was 5 mg/kg, and administration volume of the compound 27 was 10 mL/kg), and ate 4 hours after administration. About 0.2 mL of blood was collected via jugular vein before administration and 0.083 hour, 0.25 hour, 0.5 hour, 1 hour, 2 hours, 4 hours, 8 hours, 12 hours and 24 hours after administration, and heparin sodium was used for anticoagulation. The collected blood samples were placed on ice, and plasma was separated by centrifugation (centrifugation condition: 1,500 g, 10 minutes). The collected plasma samples were stored at −40° C. to −20° C. before analysis. LC-MS/MS was used to determine the content of the compound to be tested in mouse plasma after intragastric administration.

Setting [7] is: Day 10, 30 mg/kg po qd for 10 days.

Chain of recombinant human full-length SHP2 (Q06124 whole entry): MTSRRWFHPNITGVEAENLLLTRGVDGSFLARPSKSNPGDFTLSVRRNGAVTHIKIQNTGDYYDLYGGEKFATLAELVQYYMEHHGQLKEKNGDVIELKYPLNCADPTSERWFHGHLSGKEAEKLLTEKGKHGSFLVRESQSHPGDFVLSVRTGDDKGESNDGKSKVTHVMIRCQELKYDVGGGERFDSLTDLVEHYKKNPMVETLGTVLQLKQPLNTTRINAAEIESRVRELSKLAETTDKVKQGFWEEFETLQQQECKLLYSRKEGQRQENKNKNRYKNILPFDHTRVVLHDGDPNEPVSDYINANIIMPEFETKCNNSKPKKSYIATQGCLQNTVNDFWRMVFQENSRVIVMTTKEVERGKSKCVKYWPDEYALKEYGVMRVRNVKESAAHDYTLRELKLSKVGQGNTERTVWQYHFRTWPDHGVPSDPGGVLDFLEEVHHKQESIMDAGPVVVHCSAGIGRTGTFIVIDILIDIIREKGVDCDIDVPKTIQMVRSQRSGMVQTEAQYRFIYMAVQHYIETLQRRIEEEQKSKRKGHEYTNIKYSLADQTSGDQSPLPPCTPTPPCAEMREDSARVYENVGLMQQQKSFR

As to `NC(=O)c1nc(N2CCC3(CC2)Cc2ccccc2[C@H]3N)nc2[nH]nc(-c3cccc(Cl)c3Cl)c12` [Example 5, (S)-6-(1-amino-1,3-dihydrospiro[indene-2,4′-piperidin]-1′-yl)-3-(2,3-dichlorophenyl)-1H-pyrazolo[3,4-d]pyrimidine-4-carboxamide], the IC50 in data set [1] was determined as 143 nM. In addition, the IC50 in data set [2] stood at 1 nM. Besides, the IC50 in data set [3] was 27 nM. Further, in data set [4], the “Pharmacokinetic properties (conclusion in words)” value (“Pharmacokinetic properties” for short) is recorded as “good pharmacokinetic properties”, the AUC(0-inf) was 31300 ng·h/mL and the Cmax amounted to 2110 ng/mL.

`NC(=O)c1nc(N2CCC(N)(c3ccccc3)CC2)nc2[nH]nc(-c3cccc(Cl)c3Cl)c12` [Example 6, 6-(4-amino-4-phenylpiperidin-1-yl)-3-(2,3-dichlorophenyl)-1H-pyrazolo[3,4-d]pyrimidine-4-carboxamide]: the IC50 in data set [1] worked out at 61 nM; in data set [2], 4 nM; in data set [3], 19 nM. Moreover, in data set [4], the “Pharmacokinetic properties” value is on record as “good pharmacokinetic properties”. Moreover, the AUC(0-inf) in data set [4] was 18500 ng·h/mL. Also, the Cmax in data set [4] was 1190 ng/mL.

Turning to `NC(=O)c1nc(N2CCC(N)(c3ccccc3)CC2)nc2[nH]nc(-c3ccnc(Cl)c3Cl)c12` [Example 27, 6-(4-amino-4-phenylpiperidin-1-yl)-3-(2,3-dichloropyridin-4-yl)-1H-pyrazolo[3,4-d]pyrimidine-4-carboxamide], the IC50 worked out at 167 nM in data set [1], 7 nM in data set [2] and 37 nM in data set [3]. The “Growth inhibition effect on NCI-H358 tumor-bearing mice (in words)” value in data set [5] (30 mg/kg) is reported as “obvious growth inhibition effects”. In data set [5] (30 mg/kg po qd for 10 days), the Body weight change result is reported as “no obvious change in body weight”. In addition, in data set [5] (Day 0 (at grouping), 30 mg/kg po qd group), the “Tumor volume (mm^3, mean value ± standard error) Day 0” value is listed as 138 ± 14 mm^3. In addition, the “TGI % Day 10” value in data set [5] (setting [7]) is 55.6%. Moreover, the “Tumor volume (mm^3, mean value ± standard error) Day 10” value in data set [5] (setting [7]) stood at 155 ± 22 mm^3. The “Pharmacokinetic properties” value in data set [6] is “good pharmacokinetic properties”. Moreover, the AUC(0-inf) in data set [6] (mouse, plasma, read-out: Area under curve AUC0-∞) amounted to 2720 ng·h/mL. The Cmax in data set [6] (mouse, plasma, read-out: Blood concentration Cmax) was 285 ng/mL. Further, the Tmax in data set [6] (mouse, plasma, read-out: Peak time Tmax) came out at 8 h.
